Assay results from patent publication US7727949B2, “Cleaning agent for thermostatic chambers” (Wako Pure Chemical Industries, Ltd., priority 2005, dated 2010).

How the values were obtained:
Type in all cases: cell-based
[1] = tested on: Staphylococcus aureus (NBRC12732); assay: Study of germicidal activity of agents in the presence of proteins; design: key to growth of the microorganism S.a: a case where growth of the microorganism on the surface of the medium was recognized is shown by +; a case where growth of the microorganism on the surface of the medium was not recognized is shown by −; settings: for growth of the microorganism S.a: agent 50 μg/mL
Description: Didecyldimethylammonium adipate (DDAA), N-bis(3-aminopropyl)dodecylamine (TAA) and benzalkonium chloride were respectively prepared such that a concentration thereof is 1 w/w %.
GOT solution: GOT Substrate-Enzyme solution and GOT•L2α-KG solution which were components of L type Wako GOT•J2 kit (produced by Wako Pure Chemical Industries, Ltd.) were prepared with distilled water so as to become a 0.1 w/w % aqueous solution.
GPT solution: GOT Substrate-Enzyme solution and GOT•L2α-KG solution which were components of L type Wako GPT•J2 kit (produced by Wako Pure Chemical Industries, Ltd.) were prepared with distilled water so as to become a 0.1 w/w % aqueous solution.
Serum: Control Serum II Wako (produced by Wako Pure Chemical Industries, Ltd.) was prepared with distilled water so as to become a 0.1 w/w % aqueous solution.
i) The individual test microorganism, which was preliminarily cultured in bouillon medium in advance until 1×10^8 microorganisms/mL, were diluted with sterilized physiological saline for 100 times (to 1×10^6 microorganisms/mL) to obtain a solution of test microorganisms. ii) Into a 20 mL test tube made of glass which was preliminarily sterilized by dry-heat sterilization, the agent aqueous solution, the reagent solution and the solution of test microorganisms as prepared in the above described i) were added such that a final concentration of the agent become 50 μg/mL, a final concentration of the reagent become 100 μg/mL, and the number of test microorganisms become 1×10^5 microorganisms/mL, respectively, when a total volume thereof is prepared to be 10 mL. And then, the tube was sufficiently stirred. iii) After a lapse of predetermined times (5 min, 10 min, and 15 min), the solution as obtained in the above described ii) was smeared with a platinum loop on the surface of the nutrient agar plate medium preliminarily having been prepared, and the medium was cultured at 35° C.±2° C. for 24 hours. iv) After the cultivation, confirming the presence or not of the growth of the microorganisms on the surface of the medium was conducted. (3) Result
In Table 3, a case where growth of the microorganism on the surface of the medium was recognized is shown by +, and a case where growth of the microorganism on the surface of the medium was not recognized is shown by −, respectively.

[2] = tested on: Cladosporium cladosporioides (NBRC6348); assay: Study of antimicrobial activity (MIC, agar plate medium)
Description: (§1) In a sterilized petri dish having a diameter of 90 mm, an aqueous solution which was obtained by diluting each of agents with distilled water such that a concentration of the agent become each predetermined concentrations when the solution is prepared to a total volume of 20 mL, and then sterilized water was added into the petri dish such that a total volume of sterilized water and the agent aqueous solution become 2 mL. Further, 18 mL of nutrient agar medium, which was sterilized with high pressure steam and preserved at 50° C.±2° C., was added into the petri dish, and it was solidified to obtain an agar plate medium.
(§2) The individual test microorganism, which was preliminarily cultured in bouillon medium in advance until 1×10^8 microorganisms/mL, was diluted with sterilized physiological saline for 100 times (to 1×10^6 microorganisms/mL). Next, prepared solution of the test microorganism was smeared with a platinum loop on the surface of the agar plate medium prepared in (2), and the medium was cultured at 35° C.±2° C., for 24 hours.
(§3) After the cultivation, confirming the presence or not of growth of the microorganism on the surface of the medium was conducted, a minimum concentration of the agent, where growth of the microorganisms cannot be recognized, was determined as the minimum inhibitory concentration (MIC, μg/mL) of the agent.

[3] = tested on: Aspergillus niger (NBRC6341); assay: as above
Description: as §1, §2, §3

[4] = tested on: Trichoderma viride (NBRC31831); assay: as above
Description: as §1, §2, §3

[5] = tested on: Chaetomium globosum (NBRC6347); assay: as above
Description: as §1, §2, §3

[6] = tested on: Pseudonas aeruginosa (NBRC12689); assay: as above
Description: as §1, §2, §3

[7] = tested on: Escherichia coli (NBRC3972); assay: as above
Description: as §1, §2, §3

[8] = tested on: Staphylococcus aureus (NBRC12732); assay: as above
Description: as §1, §2, §3

[9] = tested on: Penicillium citrinum (NBRC6352); assay: as above
Description: as §1, §2, §3

[10] = tested on: Bacillus subtilis (NBRC13719); assay: as above
Description: as §1, §2, §3

## CCCCCCCCCCCCN(CCCN)CCCN [TAA, N-bis(3-aminopropyl)dodecylamine]
[1]; GOT, 5 min
  growth of the microorganism S.a: −
[1]; GOT, 10 min
  growth of the microorganism S.a: −
[1]; GOT, 15 min
  growth of the microorganism S.a: −
[1]; GPT, 5 min
  growth of the microorganism S.a: −
[1]; GPT, 10 min
  growth of the microorganism S.a: −
[1]; GPT, 15 min
  growth of the microorganism S.a: −
[1]; Serum, 5 min
  growth of the microorganism S.a: −
[1]; Serum, 10 min
  growth of the microorganism S.a: −
[1]; Serum, 15 min
  growth of the microorganism S.a: −
[1]; data are not shown, effect does not change in the presence of protein
  germicidal activity to Staphylococcus aureus: high germicidal activity
[2]
  Minimum Inhibitory Concentration Cl.cl: 25 µg/mL
[3]
  Minimum Inhibitory Concentration A.n: 200 µg/mL
[4]
  Minimum Inhibitory Concentration T.v: 50 µg/mL
[5]
  Minimum Inhibitory Concentration C.g: 100 µg/mL
[6]
  Minimum Inhibitory Concentration P.a: 100 µg/mL
[7]
  Minimum Inhibitory Concentration E.c: 50 µg/mL
[8]
  Minimum Inhibitory Concentration S.a: 3.125 µg/mL
[9]
  Minimum Inhibitory Concentration P.c: 200 µg/mL
[10]
  Minimum Inhibitory Concentration B.s: 3.125 µg/mL

## Didecyldimethylammonium adipate [DDAA]
[1]; GOT, 5 min
  growth of the microorganism S.a: −
[1]; GOT, 10 min
  growth of the microorganism S.a: −
[1]; GOT, 15 min
  growth of the microorganism S.a: −
[1]; GPT, 5 min
  growth of the microorganism S.a: −
[1]; GPT, 10 min
  growth of the microorganism S.a: −
[1]; GPT, 15 min
  growth of the microorganism S.a: −
[1]; Serum, 5 min
  growth of the microorganism S.a: −
[1]; Serum, 10 min
  growth of the microorganism S.a: −
[1]; Serum, 15 min
  growth of the microorganism S.a: −
[2]
  Minimum Inhibitory Concentration Cl.cl: 100 µg/mL
[3]
  Minimum Inhibitory Concentration A.n: 400 µg/mL
[4]
  Minimum Inhibitory Concentration T.v: 200 µg/mL
[5]
  Minimum Inhibitory Concentration C.g: 200 µg/mL
[6]
  Minimum Inhibitory Concentration P.a: 400 µg/mL
[7]
  Minimum Inhibitory Concentration E.c: 100 µg/mL
[8]
  Minimum Inhibitory Concentration S.a: <1.563 µg/mL
[9]
  Minimum Inhibitory Concentration P.c: 400 µg/mL
[10]
  Minimum Inhibitory Concentration B.s: <1.563 µg/mL

## benzalkonium chloride [BC, reference compound]
[1]; GOT, 5 min
  growth of the microorganism S.a: −
[1]; GOT, 10 min
  growth of the microorganism S.a: −
[1]; GOT, 15 min
  growth of the microorganism S.a: −
[1]; GPT, 5 min
  growth of the microorganism S.a: −
[1]; GPT, 10 min
  growth of the microorganism S.a: −
[1]; GPT, 15 min
  growth of the microorganism S.a: −
[1]; Serum, 5 min
  growth of the microorganism S.a: +
[1]; Serum, 10 min
  growth of the microorganism S.a: +
[1]; Serum, 15 min
  growth of the microorganism S.a: +
[2]
  Minimum Inhibitory Concentration Cl.cl: 200 µg/mL
[3]
  Minimum Inhibitory Concentration A.n: 1,600 μg/mL
[4]
  Minimum Inhibitory Concentration T.v: 400 µg/mL
[5]
  Minimum Inhibitory Concentration C.g: 400 µg/mL
[6]
  Minimum Inhibitory Concentration P.a: 800 µg/mL
[7]
  Minimum Inhibitory Concentration E.c: 100 µg/mL
[8]
  Minimum Inhibitory Concentration S.a: 6.25 µg/mL
[9]
  Minimum Inhibitory Concentration P.c: 800 µg/mL
[10]
  Minimum Inhibitory Concentration B.s: <1.563 µg/mL
